Reference: patent US12640239B2, “Functional biomarkers for statin therapy in age-related macular degeneration (AMD)” (APELIOTUS TECHNOLOGIES, INC., priority 2017, dated 2026)

Tests used:
[1] = test system: AMD patients; test: Dark adaptation testing, rod intercept (RI) time, AdaptDx Dark Adaptometer Extended Test protocol; format: in vivo, human; details: for Improvement in RI time: Patient 2, atorvastatin 80 mg/day, July 2018 vs January 2015
Source text: Dark adaptation is preferably measured using devices known in the art, for example as described in U.S. Pat. No. 7,494,222. […] Briefly, the methods of the prior art as described therein, while sitting in complete or near-complete darkness the subject is first exposed to a bright photobleaching light to photobleach one or more of the visual pigments. This is followed by exposure to a series of dim stimulus lights to track visual sensitivity recovery from the photobleach. The intensity of the stimulus lights is gradually […] (generally in a staircase fashion), and the subject indicates whether each stimulus light presentation is detectable (e.g., by pushing a response button) or not detectable (e.g., by failing to push the response button). The just-detectible stimulus light intensity and the time at which it is detected are periodically recorded to generate a dark adaptation threshold curve. Finally, the speed of dark adaption is characterized by a parameter extracted from the threshold curve such as the rod intercept time or the rod-cone break time.
(§1) Table 2 provides detailed information regarding patients 1 to 7, including the baseline diagnosis (diagnosis made when starting statin therapy), ending diagnosis (the diagnosis made on the date of the last referenced evaluation), the results of evaluations performed on each patient, and whether the patient responded to statin therapy. The dark adaptation data in this Example is the rod intercept time (or RI time) reported in minutes. In this Example, the dark adaptation data was collected using the AdaptDx® Dark Adaptometer (MacuLogix, Middletown, PA) running its standard Extended Test protocol. […] Data is automatically analyzed by the AdaptDx Dark Adaptometer to provide an RI time based on recovery to a criterion sensitivity level of 5×10^−3 scotopic cd/m^2. […] The visual acuity data was collected using a standard Snellen or ETDRS eye chart with the results presented using the standard 20/20 vision scale. Drusen resolution was determined by evaluation of fundus and OCT imaging by qualified clinicians experienced in AMD evaluation. Fundus and OCT imaging data was collected using the Heidelberg Engineering Spectralis® SD-OCT (Heidelberg, Germany) or the Karl Zeiss Meditec Cirrus® HD-OCT (Jena, Germany), in both cases running standard protocols with automated data analysis performed by the instruments.

[2] = test system: AMD patients; test: Visual acuity, standard Snellen or ETDRS eye chart; format: in vivo, human
Source text: as §1

[3] = test system: AMD patients; test: Fundus and OCT imaging: drusen resolution, retinal thickness and volume; format: in vivo, human; details: for Average retinal thickness / Average total volume (retina) / Retinal thickness, maximum / Retinal thickness, minimum: Patient 2, atorvastatin 80 mg/day; for OCT retinal imaging finding: Patient 5, atorvastatin 80 then 20 mg/day, April 2018 vs January 2014
Source text: (§2) The patient was asked to report any perceived changes in visual function during the course of the treatment. […] The self-reported improvement was confirmed at months 15 and 22 of treatment. […] The resolution of the drusen was confirmed by fundus photography and optical coherence tomography (OCT) imaging.
as §1
The baseline diagnosis and ending diagnosis are the result of clinical assessment by qualified clinicians experienced in evaluation of AMD patients. The clinical assessment was carried out utilizing standard ophthalmic testing, such as, but not limited to, slit-lamp biomicroscopy (including looking for evidence of drusen and pigmentary changes), fundus and OCT imaging (including looking for evidence of drusen and pigmentary changes and calculation of retinal volume and retinal thickness), and testing with a Snellen or ETDRS eye chart (including looking for visual acuity changes that might indicate a change in disease status). Dark adaptation results were not used in the clinical assessment of the baseline or ending diagnosis.

[4] = test system: patient having intermediate AMD; test: Patient self-report of perceived changes in visual function during statin treatment; format: in vivo, human
Source text: The patient was asked to report any perceived changes in visual function during the course of the treatment.
as §2

[5] = test system: AMD patients; details: high-dose atorvastatin; Vavvas et al., 2016; cited from earlier work
[6] = Patient #4, atorvastatin 80 mg/day, OD, month 0 (May 2018), baseline
[7] = Patient #4, atorvastatin 80 mg/day, OS, month 0 (May 2018), baseline
[8] = Patient #6, atorvastatin 80 mg/day, OD, month 9 (August 2018)

With `CC(C)c1c(C(=O)Nc2ccccc2)c(-c2ccccc2)c(-c2ccc(F)cc2)n1CC[C@@H](O)C[C@@H](O)CC(=O)O` [atorvastatin] the “Improvement in RI time” value ([1]; OD) was 1.67 min, the “Improvement in RI time” value ([1]; OS) was 2.60 min and the “Change in RI time” value ([1]; Patient 5, atorvastatin 80 then 20 mg/day, pravastatin 20 mg/day from April 2018, left eye, June 2018 vs October 2015) was “essentially unchanged”. The “Increase in RI time” value ([1]; Patient 5, atorvastatin 80 then 20 mg/day, pravastatin 20 mg/day from April 2018, right eye, June 2018 vs October 2015) was 7.51 min, the “RI (rod intercept time)” value ([1]; Patient #1, atorvastatin 20 to 80 mg/day, OD, month 24 (July 2015)) was “RI > 20 minutes” and the “RI (rod intercept time)” value ([1]; Patient #1, atorvastatin 20 to 80 mg/day, OD, month 60 (July 2018)) was “RI > 20 minutes”. The “RI (rod intercept time)” value ([1]; Patient #1, atorvastatin 20 to 80 mg/day, OS, month 24 (July 2015)) was “RI = 17.13 minutes”, the “RI (rod intercept time)” value ([1]; Patient #1, atorvastatin 20 to 80 mg/day, OS, month 60 (July 2018)) was “RI > 20 minutes” and the “RI (rod intercept time)” value ([1]; Patient #2, atorvastatin 80 mg/day, OD, month 24 (January 2015)) was “RI = 18.72 minutes”. For the same molecule, the “RI (rod intercept time)” value ([1]; Patient #2, atorvastatin 80 mg/day, OD, month 66 (July 2018)) was “RI = 17.05 minutes”, the “RI (rod intercept time)” value ([1]; Patient #2, atorvastatin 80 mg/day, OS, month 24 (January 2015)) was “RI = 9.88 minutes” and the “RI (rod intercept time)” value ([1]; Patient #2, atorvastatin 80 mg/day, OS, month 66 (July 2018)) was “RI = 7.28 minutes”. For the same molecule, the “RI (rod intercept time)” value ([1]; Patient #3, atorvastatin 80 mg/day, OD, month 8 (June 2017)) was “RI > 20 minutes”, the “RI (rod intercept time)” value ([1]; Patient #3, atorvastatin 80 mg/day, OD, month 20 (June 2018)) was “RI > 20 minutes” and the “RI (rod intercept time)” value ([1]; Patient #3, atorvastatin 80 mg/day, OS, month 8 (June 2017)) was “RI > 20 minutes”. For the same molecule, the “RI (rod intercept time)” value ([1]; Patient #3, atorvastatin 80 mg/day, OS, month 20 (June 2018)) was “RI > 20 minutes”, the “RI (rod intercept time)” value [1, 6] was “RI > 20 minutes” and the “RI (rod intercept time)” value ([1]; Patient #4, atorvastatin 80 mg/day, OD, month 4 (September 2018)) was “RI > 20 minutes”. For the same molecule, the “RI (rod intercept time)” value [1, 7] was “RI > 20 minutes”, the “RI (rod intercept time)” value ([1]; Patient #4, atorvastatin 80 mg/day, OS, month 4 (September 2018)) was “RI > 20 minutes” and the “RI (rod intercept time)” value ([1]; Patient #5, atorvastatin 80 mg/day (suspended January 2015-February 2016), then 20 mg/day, pravastatin 20 mg/day from April 2018, OD, month 52 (June 2018)) was “RI = 17.19 minutes”. For the same molecule, the “RI (rod intercept time)” value ([1]; Patient #5, atorvastatin 80 mg/day (suspended January 2015-February 2016), then 20 mg/day, pravastatin 20 mg/day from April 2018, OS, month 52 (June 2018)) was “RI = 10.81 minutes”, the “RI (rod intercept time)” value ([1]; Patient #5, atorvastatin 80 mg/day January 2014 to January 2015, therapy suspended until February 2016, OD, month 21 (October 2015)) was “RI = 9.68 minutes” and the “RI (rod intercept time)” value ([1]; Patient #5, atorvastatin 80 mg/day January 2014 to January 2015, therapy suspended until February 2016, OS, month 21 (October 2015)) was “RI = 11.04 minutes”. The “RI (rod intercept time)” value ([1]; Patient #6, atorvastatin 80 mg/day from November 2017, OD, month −3 (August 2017), before initiation) was “RI = 5.75 minutes”, the “RI (rod intercept time)” value [1, 8] was “RI = 2.55 minutes” and the “RI (rod intercept time)” value ([1]; Patient #7, atorvastatin 10 to 20 mg/day, OD, month 0 (April 2016), baseline) was “RI > 20 minutes”. For the same molecule, the “RI (rod intercept time)” value ([1]; Patient #7, atorvastatin 10 to 20 mg/day, OD, month 27 (July 2018)) was “RI > 20 minutes”, the “RI (rod intercept time)” value ([1]; Patient #7, atorvastatin 10 to 20 mg/day, OS, month 0 (April 2016), baseline) was “RI > 20 minutes” and the “RI (rod intercept time)” value ([1]; Patient #7, atorvastatin 10 to 20 mg/day, OS, month 27 (July 2018)) was “RI > 20 minutes”. For the same molecule, the “VA (visual acuity)” value ([2]; Patient #1, atorvastatin 20 to 80 mg/day, OD, month 0 (July 2013), baseline) was “VA 20/25”, the “VA (visual acuity)” value ([2]; Patient #1, atorvastatin 20 to 80 mg/day, OD, month 59 (June 2018)) was “VA 20/25” and the “VA (visual acuity)” value ([2]; Patient #1, atorvastatin 20 to 80 mg/day, OS, month 0 (July 2013), baseline) was “VA 20/32”. The “VA (visual acuity)” value ([2]; Patient #1, atorvastatin 20 to 80 mg/day, OS, month 59 (June 2018)) was “VA 20/25”, the “VA (visual acuity)” value ([2]; Patient #2, atorvastatin 80 mg/day, OD, month 64 (May 2018)) was “VA 20/30” and the “VA (visual acuity)” value ([2]; Patient #2, atorvastatin 80 mg/day, OS, month 64 (May 2018)) was “VA 20/20”. The “VA (visual acuity)” value [2, 6] was “VA 20/200”, the “VA (visual acuity)” value ([2]; Patient #4, atorvastatin 80 mg/day, OD, month 3 (August 2018)) was “VA 20/200” and the “VA (visual acuity)” value [2, 7] was “VA 20/20”. For the same molecule, the “VA (visual acuity)” value ([2]; Patient #4, atorvastatin 80 mg/day, OS, month 3 (August 2018)) was “VA 20/20”, the “VA (visual acuity)” value ([2]; Patient #5, atorvastatin 80 mg/day from January 2014, OD, month 0 (January 2014), baseline) was “VA 20/25” and the “VA (visual acuity)” value ([2]; Patient #5, atorvastatin 80 mg/day from January 2014, OS, month 0 (January 2014), baseline) was “VA 20/25”. For the same molecule, the Drusen resolution ([3]; Example 1: adult female, intermediate AMD, oral atorvastatin increasing to 80 mg per day over six months) was “eventual resolution of the drusen”, the “Drusen resolution (ophthalmic examination, fundus photography, OCT)” value ([3]; Example 2: adult person, intermediate AMD, oral atorvastatin 10 to 80 mg per day, month 15) was “substantially complete resolution of the drusen” and the Average retinal thickness ([3]; left eye, August 2016 OCT) was 193 µm. For the same molecule, the “Average total volume (retina)” value ([3]; left eye, August 2016 OCT) was 8.2 mm^3, the Retinal thickness, maximum ([3]; left eye, August 2016 OCT) was 291 µm and the Retinal thickness, minimum ([3]; left eye, August 2016 OCT) was 191 µm. For the same molecule, the Average retinal thickness ([3]; left eye, February 2016 OCT) was 364 µm, the “Average total volume (retina)” value ([3]; left eye, February 2016 OCT) was 8.45 mm^3 and the Retinal thickness, maximum ([3]; left eye, February 2016 OCT) was 457 µm. The Retinal thickness, minimum ([3]; left eye, February 2016 OCT) was 217 µm, the Average retinal thickness ([3]; right eye, August 2015 OCT) was 179 µm and the “Average total volume (retina)” value ([3]; right eye, August 2015 OCT) was 8.49 mm^3. It also gave a Retinal thickness, maximum ([3]; right eye, August 2015 OCT) of 461 µm, a Retinal thickness, minimum ([3]; right eye, August 2015 OCT) of 176 µm and an Average retinal thickness ([3]; right eye, December 2015 OCT) of 199 µm. The “Average total volume (retina)” value ([3]; right eye, December 2015 OCT) was 8.23 mm^3, the Retinal thickness, maximum ([3]; right eye, December 2015 OCT) was 332 µm and the Retinal thickness, minimum ([3]; right eye, December 2015 OCT) was 170 µm. The “OCT retinal imaging finding” value ([3]; pravastatin 20 mg/day from April 2018, left eye) was “development of a PED”, the “OCT retinal imaging finding” value ([3]; pravastatin 20 mg/day from April 2018, right eye) was “increased drusen accumulation with possible increase in drusen size” and the Drusen resolution ([3]; Patient #1, atorvastatin 20 to 80 mg/day, OU, month 59 (June 2018)) was “No indication of drusen resolution OU”. For the same molecule, the “Decrease in retina volume” value ([3]; Patient #2, atorvastatin 80 mg/day, OD, month 35 (December 2015 vs August 2015)) was “volume of 0.26 mm^3”, the “Decrease in retina volume” value ([3]; Patient #2, atorvastatin 80 mg/day, OS, month 43 (August 2016 vs February 2016)) was “volume of 0.25 mm^3” and the SDD resolution ([3]; Patient #3, atorvastatin 80 mg/day, OU, month 19 (May 2018)) was “No indication of SDD resolution OU”. For the same molecule, the Drusen resolution ([3]; Patient #4, atorvastatin 80 mg/day, OU, month 3 (August 2018)) was “No indication of drusen resolution OU”, the Drusen resolution ([3]; Patient #5, atorvastatin 80 mg/day (suspended January 2015-February 2016), then 20 mg/day, pravastatin 20 mg/day from April 2018, OU, month 51 (April 2018)) was “No indication of drusen resolution OU” and the “Decrease in retina volume” value [3, 8] was “volume of 0.09 mm^3”. For the same molecule, the “Decrease in retina volume” value ([3]; Patient #6, atorvastatin 80 mg/day, OS, month 9 (August 2018)) was “volume of 0.1 mm^3”, the Drusen resolution ([3]; Patient #6, atorvastatin 80 mg/day, OU, month 9 (August 2018)) was “Initial signs of drusen resolution OU” and the Drusen resolution ([3]; Patient #7, atorvastatin 10 to 20 mg/day, OU, month 27 (July 2018)) was “No indication of drusen resolution OU”. For the same molecule, the “Self-reported change in contrast sensitivity” value ([4]; Example 1: adult female, oral atorvastatin increasing to 80 mg per day over six months, no objective testing) was “improvement in contrast sensitivity”, the “Self-reported change in dark adaptation” value ([4]; Example 2: adult person, oral atorvastatin 10 to 80 mg per day for 23 months, month 7, confirmed at months 15 and 22, no objective testing) was “improvement in dark adaptation” and the “Patients treated with disappearance of drusen deposits and improvement in vision” value [5] was 43%.
